According to the supplement of paper PMC10307832:

Legend:
Assay in all cases: relative viability (nuclei count vs DMSO), 5 days (fraction); higher = more cells survive
[1] = compound: O=S(=O)(c1ccccc1)N(CC(F)(F)F)c1ccc(C(O)(C(F)(F)F)C(F)(F)F)cc1 + CS(=O)(=O)N1CCN(Cc2cc3nc(-c4cccc5[nH]ncc45)nc(N4CCOCC4)c3s2)CC1 [Pictilisib] (partner 1 µM)
Method in brief: (§1)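 Values are medians from duplicate plates. Each reflects relative viability, defined as the nuclei count of treated wells over that of vehicle wells. Lung cancer cell lines in 1536-well plates were pin-tool dosed one day after seeding with one drug alone or with a fixed anchor-drug dose plus five library-drug doses (not always all listed) in √10 steps, then fixed, stained and imaged at 4× after 5 days.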

RO-3306 + Navitoclax = compound: C1=CC2=C(C=CC(=C2)C=C3C(=O)NC(=NCC4=CC=CS4)S3)N=C1 [RO-3306] + CC1(C)CCC(c2ccc(Cl)cc2)=C(CN2CCN(c3ccc(C(=O)NS(=O)(=O)c4ccc(N[C@H](CCN5CCOCC5)CSc5ccccc5)c(S(=O)(=O)C(F)(F)F)c4)cc3)CC2)C1 [Navitoclax] (partner 0.5 µM)
Method in brief: as §1

[2] = compound: O=S(=O)(c1ccccc1)N(CC(F)(F)F)c1ccc(C(O)(C(F)(F)F)C(F)(F)F)cc1 + CC(=O)c1c(C)c2cnc(Nc3ccc(N4CCNCC4)cn3)nc2n(C2CCCC2)c1=O [Palbociclib] (partner 0.5 µM)
Method in brief: as §1

RO-3306 + Olaparib = compound: C1=CC2=C(C=CC(=C2)C=C3C(=O)NC(=NCC4=CC=CS4)S3)N=C1 [RO-3306] + O=C(c1cc(Cc2n[nH]c(=O)c3ccccc23)ccc1F)N1CCN(C(=O)C2CC2)CC1 [Olaparib] (partner 8 µM)
Method in brief: as §1

[3] = compound: O=S(=O)(c1ccccc1)N(CC(F)(F)F)c1ccc(C(O)(C(F)(F)F)C(F)(F)F)cc1 + C[C@@H](Oc1cc(-c2cnn(C3CCNCC3)c2)cnc1N)c1c(Cl)ccc(F)c1Cl [Crizotinib] (partner 1 µM)
Method in brief: as §1

Cell Line	relative viability ([1]; first compound 0.8 µM)	relative viability ([1]; first compound 2.53 µM)	relative viability ([1]; first compound 8 µM)	relative viability (RO-3306 + Navitoclax; first compound 0.01 µM)	relative viability (RO-3306 + Navitoclax; first compound 0.03162 µM)	relative viability (RO-3306 + Navitoclax; first compound 0.1 µM)	relative viability (RO-3306 + Navitoclax; first compound 0.3162 µM)	relative viability (RO-3306 + Navitoclax; first compound 1 µM)	relative viability ([2]; first compound 0.8 µM)	relative viability ([2]; first compound 2.53 µM)	relative viability ([2]; first compound 8 µM)	relative viability (RO-3306 + Olaparib; first compound 0.01 µM)	relative viability (RO-3306 + Olaparib; first compound 0.03162 µM)	relative viability (RO-3306 + Olaparib; first compound 0.1 µM)	relative viability (RO-3306 + Olaparib; first compound 0.3162 µM)	relative viability (RO-3306 + Olaparib; first compound 1 µM)	relative viability ([3]; first compound 0.8 µM)	relative viability ([3]; first compound 2.53 µM)	relative viability ([3]; first compound 8 µM)
201T	0.632	0.628	0.82	1.2	1.21	1.14	1.23	1.23	0.365	0.354	0.371	0.861	0.855	0.82	0.828	0.828	1	0.902	1
A549	0.609	0.473	0.567	1.36		1.2	1.18	1.21				0.308	0.295	0.297	0.367	0.303	0.884	0.74	0.703
A-427	0.708	0.677	0.822	1.05	0.978	0.959	0.936	0.993	0.449	0.454	0.476	0.81	0.813	0.705	0.778	0.652	0.929	0.793	0.872
ABC-1	0.7	0.602	0.755							0.656	0.714	0.785	1.17	0.833	0.61	0.771	1.19	1.07	1.01
BEN	0.585	0.533	0.616	0.057	0.0628	0.0739	0.0677	0.0527	0.506	0.504	0.454	1.09	0.893	1.01	1.16	1.02	0.952	0.89	0.766
CAL-12T		0.342	0.542	1.01	1.07	1.32	1.16	1.13	0.318	0.33	0.412	0.808	0.717	0.668	0.777	0.737	0.708	0.417	0.477
COR-L23	1.23	0.796	0.901	0.734		0.974	1.01	0.937	0.332	0.269	0.285	0.414	0.364	0.456	0.34	0.322	0.644	0.472	0.597
COR-L 105	0.44	0.397	0.418	0.823	0.814	0.742	0.842	0.688	0.328	0.411	0.378	0.661	0.798	0.633	0.715	0.601	0.876	0.839	0.661
Calu-6	0.839	0.851	0.691	1.06	0.776	0.934	0.908	0.826				0.568	0.576	0.599	0.611	0.604	0.7	0.668	0.649
ChaGo-K-1	0.647	0.693	1.24	0.971	1.23	0.629	0.952	0.675	1	0.895	0.877	0.443	0.402	0.41	0.362	0.223	1.31	1.07	0.613
EBC-1	0.286	0.266	0.284	0.412	0.357	0.315	0.474	0.29				0.838	0.559	0.632	0.839	0.751	0.234	0.29	0.293
EKVX	0.367	0.363	0.303	1.02	0.94	1.06	0.971	0.921	0.401	0.341	0.324	1.03	0.821	0.846	0.895	0.704	1.09	0.85	0.898
EMC-BAC-2	0.626	0.561	0.634	1.44	0.984	1.25	1.24	1.14	0.525	0.473	0.5	0.472	0.459	0.468	0.481	0.448	0.844	0.731	0.577
EPLC-272H	0.316	0.302	0.35	1.15	0.92	1.02	1.11	0.994	0.357	0.286	0.261	0.752	0.461	1.22	0.647	0.291	1.24	0.742	0.841
H3255	0.492	0.51	0.396	0.458	0.484	0.558	0.47	0.428	0.319	0.313	0.28	0.608	0.513	0.595	0.558	0.505	0.755	0.776	0.829
HARA	0.43	0.317	0.293	1.16	1.11	1.17	1.12	1.37	0.246	0.244	0.27	0.795		0.764	0.632	0.763	0.98	0.945	0.682
HCC-15	0.785	0.684	0.654	0.727	0.656	0.716	0.808	0.654	0.703	0.567	0.642	0.666	0.628	0.756	0.701	0.693	0.867	0.766	0.676
HCC-44	0.657	0.52	0.688	1.09	1.01	0.932	1.08	1.03	0.982	0.913	0.903	1.01	0.958	1	1.01	1.02	0.926	0.749	0.699
HCC-78	0.157	0.193	0.252	0.814	0.767	0.675	0.92	0.682	0.522	0.445	0.475	0.849	0.714	0.93	0.938	0.762	0.375	0.285	0.334

Cell Line	relative viability ([1]; first compound 0.8 µM)	relative viability ([1]; first compound 2.53 µM)	relative viability ([1]; first compound 8 µM)	relative viability (RO-3306 + Navitoclax; first compound 0.01 µM)	relative viability (RO-3306 + Navitoclax; first compound 0.03162 µM)	relative viability (RO-3306 + Navitoclax; first compound 0.1 µM)	relative viability (RO-3306 + Navitoclax; first compound 0.3162 µM)	relative viability (RO-3306 + Navitoclax; first compound 1 µM)	relative viability ([2]; first compound 0.8 µM)	relative viability ([2]; first compound 2.53 µM)	relative viability ([2]; first compound 8 µM)	relative viability (RO-3306 + Olaparib; first compound 0.01 µM)	relative viability (RO-3306 + Olaparib; first compound 0.03162 µM)	relative viability (RO-3306 + Olaparib; first compound 0.1 µM)	relative viability (RO-3306 + Olaparib; first compound 0.3162 µM)	relative viability (RO-3306 + Olaparib; first compound 1 µM)	relative viability ([3]; first compound 0.8 µM)	relative viability ([3]; first compound 2.53 µM)	relative viability ([3]; first compound 8 µM)
HCC-366	0.181	0.165	0.135	1.22	0.943	0.991	1.14	1.15	0.649	0.379	0.239	0.384	0.281	0.366	0.383	0.393	0.903	0.54	0.314
HCC-827	1.08	1.05	1.05	1.04	0.988	0.99	0.994	0.998	0.513	0.418	0.388	0.705	0.67	0.627	0.715	0.666	0.932	0.917	0.95
HOP-62	1.07	0.361	0.763	1.14	1.01	1.07	0.937	1.33	0.408	0.3	0.355	0.606	0.476	0.168	0.406	0.678	1.04	0.871	0.913
IA-LM	0.355	0.305	0.524	0.838	0.591	0.717	0.903	1.04				0.975		0.785	0.846	0.865	0.863	0.652	0.906
LC-2-ad	0.469	0.377	0.437	0.451	0.465	0.437	0.408	0.378	0.53	0.501	0.422	0.703	0.663	0.719	0.693	0.712	0.478	0.498	0.443
LCLC-103H	0.536	0.592	0.651						0.503	0.523	0.488	0.836	0.776	0.772	0.733	0.784	1.14	1.13	1.15
NCI-H358	0.274	0.28	0.286							0.129	0.116	0.779	0.485	0.583	0.596	0.468	0.606	0.515	0.512
NCI-H522									1.01	1.14	0.913	0.619	0.561	0.634	0.546	0.608			
NCI-H596	0.353	0.342	0.335	0.894	0.967	0.962	0.994	0.72				0.675	0.669	0.616	0.672	0.569	0.921	0.947	0.926
NCI-H650	0.913	0.842	0.885						0.322	0.329	0.27	0.316	0.373	0.37	0.382	0.361	0.737	0.559	0.782
NCI-H661	0.389	0.398	0.427						0.426	0.386	0.396	0.751	0.754	0.741	0.755	0.818	0.99	0.965	0.933
NCI-H1299	0.875	0.78	0.663	1.08	1.11	1.04	1	1.03				0.993	0.99	0.988	0.997	0.97	0.958	0.942	0.906
NCI-H1395	0.569	0.562	0.635	1.13	1.38	1.11	1.04	0.978	0.642	0.627	0.603	0.503	0.488	0.491	0.425	0.408			
NCI-H1563	0.734	0.655	0.581														0.873	0.742	0.733
NCI-H1648									0.258	0.274	0.29	0.679		0.927	0.767	0.885			
NCI-H1703	0.253	0.211	0.218	1.23	0.913	1.08	0.887	1.13				0.387	0.38	0.387	0.389	0.429	0.676	0.701	0.588
NCI-H1793	0.366	0.344	0.277	0.432	0.391	0.46	0.46	0.358	0.258	0.22	0.258	0.686		0.789	0.893	0.954			
NCI-H2342									0.592	0.545	0.502	0.574	0.499	0.428	0.437	0.379			
SW 900									0.409	0.421	0.5	0.96	0.809	0.72	0.789	0.807			
